Results on eight compounds are retold here after the NIST ThermoML archive (doi:10.1016/j.fluid.2016.02.006).

For data set [1] the following is noted: Liquid, Vibrating tube method.
Data set [2] is described as follows: xn = mol fraction of the nth substance listed. The following applies: 101 kPa, Liquid, Vibrating tube method.

± gives the expanded uncertainty stated by the source.

Take `c1ccccc1` [benzene]: the mass density (usually the mass of a sample divided by its volume) in data set [1] (298.15 K, 101.33 kPa) is 873.71 ± 2 kg/m3; in data set [1] (308.15 K, 101 kPa), 862.98 ± 2 kg/m3; in data set [1] (318.15 K, 101 kPa) it was 852.16 ± 2 kg/m3.
As to `c1ccccc1` [benzene] + CCCCCCCC, the mass density was determined as 862.98 ± 2 kg/m3 in data set [2] (308.15 K, x2 = 0) and 852.16 ± 2 kg/m3 in data set [2] (318.15 K, x2 = 0).
Take `CCCC[N+](C)(C)C.O=S(=O)([N-]S(=O)(=O)C(F)(F)F)C(F)(F)F` [butyltrimethylammonium bis(trifluoromethylsulfonyl)imide]: the mass density in data set [1] (298.15 K, 101.33 kPa) was 1392.99 ± 6 kg/m3.
`CCCCCCCCCC` [decane]: in data set [1] (298.15 K, 101.33 kPa), the mass density is reported as 726.15 ± 2 kg/m3.
Turning to `CCCCCCCCCCCC` [dodecane], the mass density in data set [1] (298.15 K, 101.33 kPa) was determined as 745.28 ± 2 kg/m3.
In the case of `CCCCCCCC` [octane], the mass density worked out at 698.86 ± 2 kg/m3 in data set [1] (298.15 K, 101.33 kPa); 690.72 ± 2 kg/m3 in data set [1] (308.15 K, 101 kPa); 682.5 ± 2 kg/m3 in data set [1] (318.15 K, 101 kPa).
`CCCCCCCC` [octane] + c1ccccc1: the mass density in data set [2] (308.15 K, x1 = 0.0959) is reported as 832.4 ± 4.5 kg/m3; in data set [2] (308.15 K, x1 = 0.1937) it was 806.43 ± 3.9 kg/m3; in data set [2] (308.15 K, x1 = 0.3048) it was 781.74 ± 3.5 kg/m3; in data set [2] (308.15 K, x1 = 0.41), 762.04 ± 3.2 kg/m3; in data set [2] (308.15 K, x1 = 0.5097), 745.81 ± 2.9 kg/m3; in data set [2] (308.15 K, x1 = 0.6058), 732.34 ± 2.7 kg/m3. Besides, the mass density came to 719.36 ± 2.6 kg/m3 in data set [2] (308.15 K, x1 = 0.711); 708.42 ± 2.5 kg/m3 in data set [2] (308.15 K, x1 = 0.8101); 698.91 ± 2.4 kg/m3 in data set [2] (308.15 K, x1 = 0.9076); 690.72 ± 2 kg/m3 in data set [2] (308.15 K, x1 = 1); 821.33 ± 4.4 kg/m3 in data set [2] (318.15 K, x1 = 0.0988); 796.48 ± 3.9 kg/m3 in data set [2] (318.15 K, x1 = 0.1982). Besides, the mass density turned out to be 771.56 ± 3.5 kg/m3 in data set [2] (318.15 K, x1 = 0.3072); 753.05 ± 3.1 kg/m3 in data set [2] (318.15 K, x1 = 0.407); 736.77 ± 2.9 kg/m3 in data set [2] (318.15 K, x1 = 0.5096); 724.35 ± 2.7 kg/m3 in data set [2] (318.15 K, x1 = 0.598); 711.47 ± 2.6 kg/m3 in data set [2] (318.15 K, x1 = 0.7048); 700.49 ± 2.5 kg/m3 in data set [2] (318.15 K, x1 = 0.8039). Besides, the mass density in data set [2] (318.15 K, x1 = 0.9005) is recorded as 691.19 ± 2.4 kg/m3; in data set [2] (318.15 K, x1 = 1) it was 682.5 ± 2 kg/m3.
For the compound `CCCC[N+](C)(CCCC)CCCC.O=S(=O)([N-]S(=O)(=O)C(F)(F)F)C(F)(F)F` [tributylmethylammonium bis((trifluoromethyl)sulfonyl)imide], the mass density in data set [1] (298.15 K, 101.33 kPa) is on record as 1261.65 ± 6 kg/m3.
